From patent US20100004234A1, “SPECIFIC KINASE INHIBITORS” (Kosan Biosciences Incorporated, priority 2004, published 2010)

Experiments:
Assay in all cases: Kinase panel, residual activity
Format in all cases: biochemical
Details in all cases: read-out: Percent residual activity
c-RAF(h) = c-RAF(h) (Homo sapiens, UniProt P04049)
Description: (§1) In this panel of 124 kinases, 18 of the 19 kinases identified as having an active site cysteine were inhibited to some extent by hypothemycin at a concentration of 0.2 μM and/or 2 μM.

PKCα(h) = PKCα(h) (Homo sapiens, UniProt P17252)
Description: as §1

CHK2(h) = CHK2(h) (Homo sapiens, UniProt O96017)
Description: as §1

GSK3β(h) = GSK3β(h) (Homo sapiens, UniProt P49841)
Description: as §1

PRAK(h) = PRAK(h) (Homo sapiens, UniProt Q8IW41)
Description: as §1

NEK2(h) = NEK2(h) (Homo sapiens, UniProt P51955)
Description: as §1

PKCμ(h) = PKCμ(h) (Homo sapiens, UniProt Q15139)
Description: as §1

PRK2(h) = PRK2(h) (Homo sapiens, UniProt Q16513)
Description: as §1

NEK7(h) = NEK7(h) (Homo sapiens, UniProt Q8TDX7)
Description: as §1

CDK6/cyclinD3(h) = CDK6/cyclinD3(h) (Homo sapiens, UniProt Q00534)
Description: as §1

EphA2(h) = EphA2(h) (Homo sapiens, UniProt P29317)
Description: as §1

Fes(h) = Fes(h) (Homo sapiens, UniProt P07332)
Description: as §1

cKit(h) = cKit(h) (Homo sapiens, UniProt P10721)
Description: as §1

CDK1/cyclinB(h) = CDK1/cyclinB(h) (Homo sapiens, UniProt P06493)
Description: as §1

Pyk2(h) = Pyk2(h) (Homo sapiens, UniProt Q14289)
Description: as §1

Rse(h) = Rse(h) (Homo sapiens, UniProt Q06418)
Description: as §1

MSK2(h) = MSK2(h) (Homo sapiens, UniProt O75676)
Description: as §1

PDGFRβ(h) = PDGFRβ(h) (Homo sapiens, UniProt P09619)
Description: as §1

MKK6(h) = MKK6(h) (Homo sapiens, UniProt P52564)
Description: as §1

MINK(h) = MINK(h) (Homo sapiens, UniProt Q8N4C8)
Description: as §1

TAK1(h) = TAK1(h) (Homo sapiens, UniProt O43318)
Description: as §1

CSK(h) = CSK(h) (Homo sapiens, UniProt P41240)
Description: as §1

CHK1(h) = CHK1(h) (Homo sapiens, UniProt O14757)
Description: as §1

ZAP-70(h) = ZAP-70(h) (Homo sapiens, UniProt P43403)
Description: as §1

PKCε(h) = PKCε(h) (Homo sapiens, UniProt Q02156)
Description: as §1

RIPK2(h) = RIPK2(h) (Homo sapiens, UniProt O43353)
Description: as §1

MEK1(h) = MEK1(h) (Homo sapiens, UniProt Q02750)
Description: as §1

Ron(h) = Ron(h) (Homo sapiens, UniProt Q04912)
Description: as §1

PKCι(h) = PKCι(h) (Homo sapiens, UniProt P41743)
Description: as §1

MSK1(h) = MSK1(h) (Homo sapiens, UniProt O75582)
Description: as §1

Flt3(D835Y)(h) = Flt3(D835Y)(h) (Homo sapiens, UniProt P36888, D835Y)
Description: as §1

cSRC(h) = cSRC(h) (Homo sapiens, UniProt P12931)
Description: as §1

IGF-1R(h) = IGF-1R(h) (Homo sapiens, UniProt P08069)
Description: as §1

Hck(h) = Hck(h) (Homo sapiens, UniProt P08631)
Description: as §1

CK2(h) = CK2(h) (Homo sapiens, UniProt P68400)
Description: as §1

CDK2/cyclinE(h) = CDK2/cyclinE(h) (Homo sapiens, UniProt P24941)
Description: as §1

PKD2(h) = PKD2(h) (Homo sapiens, UniProt Q9BZL6)
Description: as §1

Sequence of PRAK(h) (Q8IW41 whole entry): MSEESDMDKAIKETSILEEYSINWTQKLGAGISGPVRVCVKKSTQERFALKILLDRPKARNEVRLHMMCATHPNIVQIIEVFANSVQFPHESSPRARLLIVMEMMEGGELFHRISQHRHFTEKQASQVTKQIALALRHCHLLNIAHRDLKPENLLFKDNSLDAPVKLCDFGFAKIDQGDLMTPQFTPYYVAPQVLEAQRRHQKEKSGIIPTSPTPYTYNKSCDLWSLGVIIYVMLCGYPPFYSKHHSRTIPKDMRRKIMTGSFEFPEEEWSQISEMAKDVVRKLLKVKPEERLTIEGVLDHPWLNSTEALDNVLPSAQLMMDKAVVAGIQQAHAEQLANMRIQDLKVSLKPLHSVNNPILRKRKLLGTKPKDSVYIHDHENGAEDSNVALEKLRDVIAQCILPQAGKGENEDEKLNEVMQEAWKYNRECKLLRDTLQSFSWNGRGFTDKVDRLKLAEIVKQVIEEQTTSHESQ
Sequence of GSK3β(h) (P49841 whole entry): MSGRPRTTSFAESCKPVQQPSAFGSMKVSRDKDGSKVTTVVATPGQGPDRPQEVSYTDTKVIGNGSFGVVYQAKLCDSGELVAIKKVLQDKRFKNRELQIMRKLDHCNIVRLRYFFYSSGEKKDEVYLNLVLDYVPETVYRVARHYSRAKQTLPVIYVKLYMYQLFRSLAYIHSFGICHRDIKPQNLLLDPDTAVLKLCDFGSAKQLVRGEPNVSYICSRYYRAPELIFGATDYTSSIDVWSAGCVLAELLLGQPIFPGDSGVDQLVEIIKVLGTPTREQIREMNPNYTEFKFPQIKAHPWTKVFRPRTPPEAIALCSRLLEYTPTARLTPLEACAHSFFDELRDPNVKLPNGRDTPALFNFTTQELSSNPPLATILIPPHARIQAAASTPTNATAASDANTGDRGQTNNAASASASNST
Sequence of cSRC(h) (P12931 whole entry): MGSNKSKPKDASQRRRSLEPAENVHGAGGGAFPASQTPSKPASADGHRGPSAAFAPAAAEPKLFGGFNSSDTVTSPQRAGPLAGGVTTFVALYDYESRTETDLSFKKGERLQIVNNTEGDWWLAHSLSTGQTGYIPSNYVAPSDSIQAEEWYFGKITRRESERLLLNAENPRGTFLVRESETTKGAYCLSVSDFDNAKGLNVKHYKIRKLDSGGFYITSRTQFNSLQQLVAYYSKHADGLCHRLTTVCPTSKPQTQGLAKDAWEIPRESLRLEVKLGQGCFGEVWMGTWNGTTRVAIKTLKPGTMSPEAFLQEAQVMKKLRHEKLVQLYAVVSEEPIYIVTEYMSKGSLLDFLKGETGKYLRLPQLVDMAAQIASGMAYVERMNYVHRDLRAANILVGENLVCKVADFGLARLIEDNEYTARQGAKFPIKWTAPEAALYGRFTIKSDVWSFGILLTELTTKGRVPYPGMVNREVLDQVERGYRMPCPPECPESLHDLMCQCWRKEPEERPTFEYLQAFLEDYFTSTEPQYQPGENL
Sequence of PKCμ(h) (Q15139 whole entry): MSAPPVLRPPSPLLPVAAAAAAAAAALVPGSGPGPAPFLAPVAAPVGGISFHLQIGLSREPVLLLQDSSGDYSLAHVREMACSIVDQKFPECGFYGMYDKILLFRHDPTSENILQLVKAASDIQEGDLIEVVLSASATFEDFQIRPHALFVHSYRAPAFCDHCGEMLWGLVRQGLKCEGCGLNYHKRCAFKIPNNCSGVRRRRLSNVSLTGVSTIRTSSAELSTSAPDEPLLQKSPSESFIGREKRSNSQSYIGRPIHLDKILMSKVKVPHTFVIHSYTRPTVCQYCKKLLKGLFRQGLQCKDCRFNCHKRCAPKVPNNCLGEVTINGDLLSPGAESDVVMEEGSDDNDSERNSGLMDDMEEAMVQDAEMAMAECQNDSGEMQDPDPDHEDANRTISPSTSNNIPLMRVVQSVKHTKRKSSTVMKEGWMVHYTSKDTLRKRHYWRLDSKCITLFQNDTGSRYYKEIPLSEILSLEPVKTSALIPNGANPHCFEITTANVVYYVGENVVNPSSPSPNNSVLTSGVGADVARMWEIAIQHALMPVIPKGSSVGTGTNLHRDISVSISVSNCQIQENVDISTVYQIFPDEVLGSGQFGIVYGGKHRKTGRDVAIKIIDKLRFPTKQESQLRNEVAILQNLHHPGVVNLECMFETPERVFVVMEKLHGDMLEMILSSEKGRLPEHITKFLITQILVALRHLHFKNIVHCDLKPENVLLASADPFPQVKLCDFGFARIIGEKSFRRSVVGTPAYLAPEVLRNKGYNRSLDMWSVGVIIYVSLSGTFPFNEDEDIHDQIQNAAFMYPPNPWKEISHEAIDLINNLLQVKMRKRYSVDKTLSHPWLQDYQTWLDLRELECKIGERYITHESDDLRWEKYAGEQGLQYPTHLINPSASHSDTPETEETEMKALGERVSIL
Sequence of MKK6(h) (P52564 whole entry): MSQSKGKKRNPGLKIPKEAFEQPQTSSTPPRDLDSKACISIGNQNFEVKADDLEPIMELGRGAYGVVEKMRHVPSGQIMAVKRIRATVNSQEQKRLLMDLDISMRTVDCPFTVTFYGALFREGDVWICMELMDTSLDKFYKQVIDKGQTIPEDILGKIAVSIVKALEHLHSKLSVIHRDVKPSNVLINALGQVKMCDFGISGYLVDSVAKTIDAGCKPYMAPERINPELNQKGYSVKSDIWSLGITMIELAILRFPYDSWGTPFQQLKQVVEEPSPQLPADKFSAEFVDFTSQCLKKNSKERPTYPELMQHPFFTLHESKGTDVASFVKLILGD
Sequence of cKit(h) (P10721 26-976): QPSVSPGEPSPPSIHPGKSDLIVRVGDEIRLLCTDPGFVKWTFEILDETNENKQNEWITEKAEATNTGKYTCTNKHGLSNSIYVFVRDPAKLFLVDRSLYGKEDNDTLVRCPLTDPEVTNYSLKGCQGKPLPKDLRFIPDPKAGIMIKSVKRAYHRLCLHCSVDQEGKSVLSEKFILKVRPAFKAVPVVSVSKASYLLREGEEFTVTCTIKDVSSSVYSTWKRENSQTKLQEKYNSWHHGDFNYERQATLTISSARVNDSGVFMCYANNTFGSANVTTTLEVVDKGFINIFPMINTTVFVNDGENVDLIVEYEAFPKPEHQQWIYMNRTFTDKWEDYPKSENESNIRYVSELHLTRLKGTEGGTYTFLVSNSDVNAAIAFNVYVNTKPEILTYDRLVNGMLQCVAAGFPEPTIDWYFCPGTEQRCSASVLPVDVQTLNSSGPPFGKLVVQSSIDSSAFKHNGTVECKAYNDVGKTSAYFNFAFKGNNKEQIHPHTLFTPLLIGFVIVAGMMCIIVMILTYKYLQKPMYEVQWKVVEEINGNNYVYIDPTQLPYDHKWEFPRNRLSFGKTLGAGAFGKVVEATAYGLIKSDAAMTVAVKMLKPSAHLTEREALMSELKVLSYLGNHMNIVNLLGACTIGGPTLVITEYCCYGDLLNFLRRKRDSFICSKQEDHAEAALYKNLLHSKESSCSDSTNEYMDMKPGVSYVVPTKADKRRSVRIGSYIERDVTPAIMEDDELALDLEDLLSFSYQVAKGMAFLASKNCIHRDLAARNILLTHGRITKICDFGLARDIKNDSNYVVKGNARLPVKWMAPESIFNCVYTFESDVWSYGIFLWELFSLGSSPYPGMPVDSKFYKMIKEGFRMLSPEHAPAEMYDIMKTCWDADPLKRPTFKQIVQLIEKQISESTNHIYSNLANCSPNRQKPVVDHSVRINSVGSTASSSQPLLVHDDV
Sequence of MEK1(h) (Q02750 whole entry): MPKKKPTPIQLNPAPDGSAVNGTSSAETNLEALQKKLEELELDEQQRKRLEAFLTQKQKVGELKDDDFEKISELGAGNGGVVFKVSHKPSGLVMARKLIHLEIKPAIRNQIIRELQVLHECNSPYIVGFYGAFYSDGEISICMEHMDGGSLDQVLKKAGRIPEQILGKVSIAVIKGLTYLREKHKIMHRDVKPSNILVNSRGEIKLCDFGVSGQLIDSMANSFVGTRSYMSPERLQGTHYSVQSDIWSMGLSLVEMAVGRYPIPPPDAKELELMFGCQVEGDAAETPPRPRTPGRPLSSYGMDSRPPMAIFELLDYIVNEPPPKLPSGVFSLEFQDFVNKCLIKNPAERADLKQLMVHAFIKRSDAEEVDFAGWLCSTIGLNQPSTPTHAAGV
Sequence of TAK1(h) (O43318 1-303 limits assumed): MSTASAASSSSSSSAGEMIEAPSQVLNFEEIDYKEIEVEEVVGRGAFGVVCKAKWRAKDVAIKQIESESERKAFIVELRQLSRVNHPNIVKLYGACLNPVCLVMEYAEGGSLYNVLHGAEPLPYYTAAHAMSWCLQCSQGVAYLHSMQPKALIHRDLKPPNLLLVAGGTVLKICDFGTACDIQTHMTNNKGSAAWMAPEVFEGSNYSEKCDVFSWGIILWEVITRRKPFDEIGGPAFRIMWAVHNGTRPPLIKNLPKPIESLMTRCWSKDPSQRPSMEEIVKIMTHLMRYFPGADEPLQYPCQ
Sequence of TAK1(h) (Q15750 437-504 partner limits assumed): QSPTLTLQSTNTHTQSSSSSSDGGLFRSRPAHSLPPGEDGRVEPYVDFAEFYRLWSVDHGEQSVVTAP
Sequence of Hck(h) (P08631 whole entry): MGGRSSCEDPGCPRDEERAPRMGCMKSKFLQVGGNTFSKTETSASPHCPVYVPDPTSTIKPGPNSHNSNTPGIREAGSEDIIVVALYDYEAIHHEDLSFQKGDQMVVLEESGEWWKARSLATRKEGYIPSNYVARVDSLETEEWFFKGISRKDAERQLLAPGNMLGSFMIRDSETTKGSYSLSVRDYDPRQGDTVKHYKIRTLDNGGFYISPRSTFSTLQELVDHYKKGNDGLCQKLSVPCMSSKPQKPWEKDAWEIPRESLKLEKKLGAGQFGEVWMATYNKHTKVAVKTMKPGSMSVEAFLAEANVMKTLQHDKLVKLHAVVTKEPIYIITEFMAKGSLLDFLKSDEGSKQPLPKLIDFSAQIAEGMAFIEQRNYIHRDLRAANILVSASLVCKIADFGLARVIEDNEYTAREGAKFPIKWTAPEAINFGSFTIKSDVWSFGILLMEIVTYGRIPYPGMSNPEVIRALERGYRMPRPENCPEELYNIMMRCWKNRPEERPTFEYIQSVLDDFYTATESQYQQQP

## COc1cc(O)c2c(c1)[C@H]1O[C@@H]1C[C@H](O)[C@H](O)C(=O)/C=C\C[C@H](C)OC2=O [Hypothemycin, hypothemycin]
c-RAF(h)
  remaining activity at 0.2 µM: 103%
PKCα(h)
  remaining activity at 0.2 µM: 96%
CHK2(h)
  remaining activity at 0.2 µM: 97%
GSK3β(h); 0.2 μM
  remaining activity at 0.2 µM: 90%
GSK3β(h); 2.0 μM
  remaining activity at 2 µM: 40%
PRAK(h); 0.2 μM
  remaining activity at 0.2 µM: 20%
PRAK(h); 2.0 μM
  remaining activity at 2 µM: 1%
NEK2(h)
  remaining activity at 0.2 µM: 99%
PKCμ(h); 0.2 μM
  remaining activity at 0.2 µM: 34%
PKCμ(h); 2.0 μM
  remaining activity at 2 µM: 6%
PRK2(h)
  remaining activity at 0.2 µM: 108%
NEK7(h)
  remaining activity at 0.2 µM: 98%
CDK6/cyclinD3(h)
  remaining activity at 0.2 µM: 95%
EphA2(h)
  remaining activity at 0.2 µM: 87%
Fes(h)
  remaining activity at 0.2 µM: 92%
cKit(h); 0.2 μM
  remaining activity at 0.2 µM: 93%
cKit(h); 2.0 μM
  remaining activity at 2 µM: 21%
CDK1/cyclinB(h)
  remaining activity at 0.2 µM: 89%
Pyk2(h)
  remaining activity at 0.2 µM: 84%
Rse(h)
  remaining activity at 0.2 µM: 90%
MSK2(h)
  remaining activity at 0.2 µM: 101%
PDGFRβ(h); 0.2 μM
  remaining activity at 0.2 µM: 73%
PDGFRβ(h); 2.0 μM
  remaining activity at 2 µM: 40%
MKK6(h); 0.2 μM
  remaining activity at 0.2 µM: 43%
MKK6(h); 2.0 μM
  remaining activity at 2 µM: 8%
MINK(h)
  remaining activity at 0.2 µM: 88%
TAK1(h); 0.2 μM
  remaining activity at 0.2 µM: 12%
TAK1(h); 2.0 μM
  remaining activity at 2 µM: 5%
CSK(h)
  remaining activity at 0.2 µM: 104%
CHK1(h)
  remaining activity at 0.2 µM: 94%
ZAP-70(h)
  remaining activity at 0.2 µM: 111%
PKCε(h)
  remaining activity at 0.2 µM: 106%
RIPK2(h)
  remaining activity at 0.2 µM: 101%
MEK1(h); 0.2 μM
  remaining activity at 0.2 µM: 54%
MEK1(h); 2.0 μM
  remaining activity at 2 µM: 8%
Ron(h)
  remaining activity at 0.2 µM: 91%
PKCι(h)
  remaining activity at 0.2 µM: 108%
MSK1(h)
  remaining activity at 0.2 µM: 87%
Flt3(D835Y)(h); 0.2 μM
  remaining activity at 0.2 µM: 4%
Flt3(D835Y)(h); 2.0 μM
  remaining activity at 2 µM: 2%
cSRC(h); 0.2 μM
  remaining activity at 0.2 µM: 75%
cSRC(h); 2.0 μM
  remaining activity at 2 µM: 49%
IGF-1R(h)
  remaining activity at 0.2 µM: 107%
Hck(h); 0.2 μM
  remaining activity at 0.2 µM: 78%
Hck(h); 2.0 μM
  remaining activity at 2 µM: 91%
CK2(h)
  remaining activity at 0.2 µM: 99%
CDK2/cyclinE(h)
  remaining activity at 0.2 µM: 105%
PKD2(h); 0.2 μM
  remaining activity at 0.2 µM: 31%
PKD2(h); 2.0 μM
  remaining activity at 2 µM: -2%
